Results on 56 compounds are retold here after patent US9169205B2, “Pyrrolidine derivatives, pharmaceutical compositions and uses thereof” (Boehringer Ingelheim International GmbH, priority 2012, dated 2015).

The experiment deals with human ACC2 (Homo sapiens (Human), UniProt O00763). Kind of experiment: ACC2 assay (spectrophotometric 384 well assay, NADH-linked kinetic method). The class given is biochemical. The settings on record: hACC2 construct lacking 128 N-terminal amino acids, 25° C., 340 nm. The procedure:
Spectrophotometric 384 Well Assay
Malonyl CoA formation by acetyl CoA carboxylases is stoichometrically linked to the consumption of ATP. ACC2 activity is measured in a NADH-linked kinetic method measuring ADP generated during the ACC reaction using a coupled lactate dehydrogenase/pyruvate kinase reaction.
The protein is then expressed in insect cells using a baculoviral expression system. Protein purification is performed by anion exchange.
All compounds are dissolved in dimethyl sulfoxide (DMSO) to a concentration of 10 mM.
The enzymatic reaction is then started by addition of a mixture of NADH, acetyl Coenzyme A (both 200 μM f.c.) and ATP (500 uM f.c.). The decrease of the optical density (slope S) is then determined at 25° C. at a wavelength of 340 nm over 15 minutes in a spectrophotometric reader.
Each assay microtiter plate contains wells with vehicle instead of compound as controls for the non-inhibited enzyme (100% CTL; ‘HIGH’) and wells without acetyl-CoA as controls for non-specific NADH degradation (0% CTL; ‘LOW’).

human ACC2, sequence (O00763 129-2458): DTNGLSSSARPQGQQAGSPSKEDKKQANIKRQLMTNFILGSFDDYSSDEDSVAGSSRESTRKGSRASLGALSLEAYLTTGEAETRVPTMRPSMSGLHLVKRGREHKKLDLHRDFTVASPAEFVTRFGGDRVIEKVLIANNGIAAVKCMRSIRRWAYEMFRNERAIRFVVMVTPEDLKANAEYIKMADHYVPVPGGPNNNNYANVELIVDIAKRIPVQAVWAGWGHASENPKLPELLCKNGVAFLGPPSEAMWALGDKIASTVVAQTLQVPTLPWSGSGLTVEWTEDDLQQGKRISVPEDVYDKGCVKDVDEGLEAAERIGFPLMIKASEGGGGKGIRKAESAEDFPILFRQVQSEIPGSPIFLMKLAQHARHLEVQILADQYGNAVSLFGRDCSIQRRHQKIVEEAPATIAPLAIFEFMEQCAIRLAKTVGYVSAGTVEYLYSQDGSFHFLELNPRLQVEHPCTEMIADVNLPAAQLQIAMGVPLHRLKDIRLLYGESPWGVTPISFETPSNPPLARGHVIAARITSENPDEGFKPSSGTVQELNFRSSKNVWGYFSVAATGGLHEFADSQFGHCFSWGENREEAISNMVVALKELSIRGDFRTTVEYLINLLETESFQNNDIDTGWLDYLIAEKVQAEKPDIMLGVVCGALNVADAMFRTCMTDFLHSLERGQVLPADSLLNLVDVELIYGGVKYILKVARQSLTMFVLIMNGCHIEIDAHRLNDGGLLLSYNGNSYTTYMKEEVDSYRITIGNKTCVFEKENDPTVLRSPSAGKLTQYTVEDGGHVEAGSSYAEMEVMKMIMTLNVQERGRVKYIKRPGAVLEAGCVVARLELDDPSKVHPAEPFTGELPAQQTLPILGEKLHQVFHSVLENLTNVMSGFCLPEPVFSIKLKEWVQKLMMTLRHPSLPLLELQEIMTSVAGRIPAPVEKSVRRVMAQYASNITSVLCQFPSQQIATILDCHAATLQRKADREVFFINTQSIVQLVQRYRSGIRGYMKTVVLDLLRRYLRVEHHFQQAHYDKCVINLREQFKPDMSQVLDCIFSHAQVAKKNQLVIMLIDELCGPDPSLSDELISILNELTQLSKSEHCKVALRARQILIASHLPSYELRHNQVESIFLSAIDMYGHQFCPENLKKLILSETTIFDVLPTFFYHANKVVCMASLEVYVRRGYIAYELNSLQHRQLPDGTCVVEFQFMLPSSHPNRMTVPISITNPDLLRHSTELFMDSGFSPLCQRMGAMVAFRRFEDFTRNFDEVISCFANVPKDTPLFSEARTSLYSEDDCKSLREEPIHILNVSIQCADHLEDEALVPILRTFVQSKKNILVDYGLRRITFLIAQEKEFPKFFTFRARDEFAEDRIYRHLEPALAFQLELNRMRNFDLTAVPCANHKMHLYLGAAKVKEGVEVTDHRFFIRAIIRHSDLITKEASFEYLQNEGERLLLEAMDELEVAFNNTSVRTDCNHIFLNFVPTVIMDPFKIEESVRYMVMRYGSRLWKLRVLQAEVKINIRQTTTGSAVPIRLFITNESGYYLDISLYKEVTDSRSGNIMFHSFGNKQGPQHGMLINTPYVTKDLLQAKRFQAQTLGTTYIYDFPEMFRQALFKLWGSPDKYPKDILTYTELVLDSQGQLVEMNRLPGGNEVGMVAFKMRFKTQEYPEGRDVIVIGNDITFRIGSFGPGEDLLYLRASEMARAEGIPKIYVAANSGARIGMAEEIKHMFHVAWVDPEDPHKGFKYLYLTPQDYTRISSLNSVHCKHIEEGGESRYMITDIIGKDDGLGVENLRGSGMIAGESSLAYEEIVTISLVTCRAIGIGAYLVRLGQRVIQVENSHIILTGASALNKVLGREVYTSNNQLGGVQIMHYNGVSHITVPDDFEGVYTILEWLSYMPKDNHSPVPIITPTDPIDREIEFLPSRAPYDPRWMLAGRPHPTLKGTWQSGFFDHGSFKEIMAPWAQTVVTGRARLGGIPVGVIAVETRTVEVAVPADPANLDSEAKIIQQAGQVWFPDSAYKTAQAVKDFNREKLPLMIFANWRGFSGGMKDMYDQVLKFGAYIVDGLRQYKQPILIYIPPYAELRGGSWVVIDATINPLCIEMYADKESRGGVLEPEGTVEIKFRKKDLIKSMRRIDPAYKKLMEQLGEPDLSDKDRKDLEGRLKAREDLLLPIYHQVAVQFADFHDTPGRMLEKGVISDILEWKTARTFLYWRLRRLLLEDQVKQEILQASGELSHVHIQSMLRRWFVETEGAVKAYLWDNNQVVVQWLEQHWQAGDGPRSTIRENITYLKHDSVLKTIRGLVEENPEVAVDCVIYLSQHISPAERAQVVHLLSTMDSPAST

Turning to `C[C@H](NC(=O)c1ccon1)c1ccc(O[C@@H]2CCN(c3ccc(OCC4CC4)cc3)C2)cc1` [Example 2.34], the IC50 – broadly, the concentration at which inhibition is half-maximal – was determined as 71 nM.
`C[C@H](NC(=O)C1(C#N)CC1)c1ccc(O[C@@H]2CCN(c3ccc(OCC4CC4)cc3)C2)cc1` [Example 2.35]: the concentration for half-maximal inhibition (IC50) stood at 273 nM. This IC50 is about 3.8-fold higher than that of the compound before.
In the case of `C[C@H](NC(=O)c1ccnnc1)c1ccc(O[C@@H]2CCN(c3ccc(OCC4CC4)cc3)C2)cc1` [Example 2.36] it was 200 nM; in that of `Cc1nocc1C(=O)N[C@@H](C)c1ccc(O[C@@H]2CCN(c3ccc(OCC4CC4)cc3)C2)cc1` [Example 2.37], 65 nM.
In turn, `C[C@H](NC(=O)c1cncs1)c1ccc(O[C@@H]2CCN(c3ccc(OCC4CC4)cc3)C2)cc1` [Example 2.38] gave an IC50 of 17 nM. Against the preceding compound, the IC50 is about 3.8-fold lower.
On to `C[C@H](NC(=O)C(C)(C)C#N)c1ccc(O[C@@H]2CCN(c3ccc(OCC4CC4)cc3)C2)cc1` [Example 2.39], for which the IC50 amounted to 465 nM.
`Cc1nc(N)sc1C(=O)N[C@@H](C)c1ccc(O[C@@H]2CCN(c3ccc(OCC4CC4)cc3)C2)cc1` [Example 2.40] showed a 50% inhibitory concentration (IC50) of 384 nM.
The figure for `CCC(=O)Nc1nc(C)c(C(=O)N[C@@H](C)c2ccc(OC3CCN(c4ccc(OCC5CC5)cc4)C3)cc2)s1` (some centres unmarked) [Example 2.41] is 23 nM; for `COCC(=O)Nc1nc(C)c(C(=O)N[C@@H](C)c2ccc(OC3CCN(c4ccc(OCC5CC5)cc4)C3)cc2)s1` (some centres unmarked) [Example 2.42] it is 20 nM.
In the case of `C[C@H](NC(=O)c1cnc(N)s1)c1ccc(O[C@@H]2CCN(c3ccc(OCC4CC4)cc3)C2)cc1` [Example 2.43] it was 160 nM; in that of `C[C@H](NC(=O)c1cnn(C)c1Cl)c1ccc(O[C@@H]2CCN(c3ccc(OCC4CC4)cc3)C2)cc1` [Example 2.44], 55 nM.
In turn, `C[C@H](NC(=O)c1cn(C)nc1C(F)F)c1ccc(O[C@@H]2CCN(c3ccc(OCC4CC4)cc3)C2)cc1` [Example 2.45] yielded an IC50 of 993 nM.
As for `C[C@H](NC(=O)c1cnn(C(F)F)c1)c1ccc(O[C@@H]2CCN(c3ccc(OCC4CC4)cc3)C2)cc1` [Example 2.46], the half-maximal inhibitory concentration (IC50) amounted to 382 nM.
In the case of `Cc1c(C(=O)N[C@@H](C)c2ccc(O[C@@H]3CCN(c4ccc(OCC5CC5)cc4)C3)cc2)cnn1C` [Example 2.47] it was 385 nM; in that of `C[C@H](NC(=O)c1c[nH]nc1C(F)(F)F)c1ccc(O[C@@H]2CCN(c3ccc(OCC4CC4)cc3)C2)cc1` [Example 2.48], 445 nM.
In the case of `C[C@H](NC(=O)c1cnn2ccn(C)c12)c1ccc(O[C@@H]2CCN(c3ccc(OCC4CC4)cc3)C2)cc1` [Example 2.49] it was 885 nM; in that of `C[C@H](NC(=O)c1cnn(C)c1N)c1ccc(O[C@@H]2CCN(c3ccc(OCC4CC4)cc3)C2)cc1` [Example 2.50], 65 nM.
As to `C[C@H](NC(=O)c1cnn(CCO)c1)c1ccc(O[C@@H]2CCN(c3ccc(OCC4CC4)cc3)C2)cc1` [Example 2.51], 495 nM corresponded to half-maximal inhibition (IC50).
Regarding `C[C@H](NC(=O)c1cnn(CC(F)F)c1)c1ccc(O[C@@H]2CCN(c3ccc(OCC4CC4)cc3)C2)cc1` [Example 2.52], the half-inhibitory concentration (IC50) worked out at 805 nM.
Compound `CCOc1ccc(N2CC[C@@H](Oc3ccc([C@H](C)NC(=O)c4sc(NC(=O)COCc5ccccc5)nc4C)cc3)C2)cc1` [Example 2.54] gave an IC50 of 45 nM.
In the case of `CCOc1ccc(N2CC[C@@H](Oc3ccc([C@H](C)NC(=O)c4sc(NC(=O)COC(C)=O)nc4C)cc3)C2)cc1` [Example 2.55], the IC50 worked out at 53 nM. The IC50 values of the last two compounds are within 1.5-fold of each other.
In the case of `C[C@H](NC(=O)c1cn(C)nc1C#N)c1ccc(O[C@@H]2CCN(c3ccc(OCC4CC4)cc3)C2)cc1` [Example 2.56] it was 417 nM; in that of `C[C@H](NC(=O)c1c[nH]nc1C#N)c1ccc(O[C@@H]2CCN(c3ccc(OCC4CC4)cc3)C2)cc1` [Example 2.57], 122 nM; in that of `Cc1cc(OC2CC2)ccc1N1CC[C@@H](Oc2ccc([C@H](C)NC(=O)CO)cc2)C1` [Example 2.58], 743 nM.
`Cc1cc(OC2CC2)ccc1N1CC[C@@H](Oc2ccc([C@H](C)NC(=O)CC#N)cc2)C1` [Example 2.59] had an IC50 of 680 nM.
Take `Cc1cc(OC2CC2)ccc1N1CC[C@@H](Oc2ccc([C@H](C)NC(=O)c3cncs3)cc2)C1` [Example 2.60]: the IC50 worked out at 260 nM. This IC50 is about 2.6-fold lower than that of the compound before.
`Cc1cc(OC2CC2)ccc1N1CC[C@@H](Oc2ccc([C@H](C)NC(=O)c3cnco3)cc2)C1` [Example 2.61] displayed an IC50 of 397 nM.
As for `CCC(=O)N[C@@H](C)c1ccc(O[C@@H]2CCN(c3ccc(OC4CC4)cc3C)C2)cc1` [Example 2.62], the concentration for half-maximal inhibition (IC50) was 411 nM.
For the compound `CC(=O)Nc1nc(C)c(C(=O)N[C@@H](C)c2ccc(O[C@@H]3CCN(c4ccc(OC5CC5)cc4C)C3)cc2)s1` [Example 2.63], half-maximal inhibition (IC50) required 238 nM.
In the case of `Cc1cc(OC2CC2)ccc1N1CC[C@@H](Oc2ccc([C@H](C)NC(=O)c3cn[nH]c3)cc2)C1` [Example 2.64], the midpoint of inhibition, the IC50, lay at 357 nM.
With `Cc1cc(OC2CC2)ccc1N1CC[C@@H](Oc2ccc([C@H](C)NC(=O)c3cnoc3C)cc2)C1` [Example 2.65], the half-inhibitory concentration (IC50) was 90 nM.
Regarding `C[C@H](NC(=O)N(C)C)c1ccc(O[C@@H]2CCN(c3ccc(OCC4CC4)cc3)C2)cc1` [Example 3.1, 3-((S)-1-(4-((R)-1-(4-(cyclopropylmethoxy)phenyl)pyrrolidin-3-yloxy)phenyl)ethyl)-1,1-dimethylurea], the IC50 was 74 nM.
In the case of `CCNC(=O)N[C@@H](C)c1ccc(OC2CCN(c3ccc(OCC4CC4)cc3)C2)cc1` (some centres unmarked) [Example 3.2] it was 55 nM; in that of `C[C@H](NC(=O)N1CCC1)c1ccc(OC2CCN(c3ccc(OCC4CC4)cc3)C2)cc1` (some centres unmarked) [Example 3.3], 1270 nM.
`CCN(C)C(=O)N[C@@H](C)c1ccc(OC2CCN(c3ccc(OCC4CC4)cc3)C2)cc1` (some centres unmarked) [Example 3.4] displayed an IC50 of 165 nM.
As for `C[C@H](NC(=O)N1CCOCC1)c1ccc(OC2CCN(c3ccc(OCC4CC4)cc3)C2)cc1` (some centres unmarked) [Example 3.5], the concentration for half-maximal inhibition (IC50) stood at 198 nM. This IC50 and that of the compound before are within 1.5-fold of each other.
In the case of `C[C@H](NC(=O)N(C)Cc1ccncn1)c1ccc(OC2CCN(c3ccc(OCC4CC4)cc3)C2)cc1` (some centres unmarked) [Example 3.6] it was 504 nM; in that of `C[C@H](NC(=O)Nc1ccon1)c1ccc(OC2CCN(c3ccc(OCC4CC4)cc3)C2)cc1` (some centres unmarked) [Example 3.7], 56 nM.
For `CNC(=O)N[C@@H](C)c1ccc(OC2CCN(c3ccc(OCC4CC4)cc3)C2)cc1` (some centres unmarked) [Example 3.8], half-maximal inhibition (IC50) was put at 73 nM. The IC50 values of the last two compounds are within 1.5-fold of each other.
The compound `CNC(=O)N[C@@H](C)c1ccc(OC2CCN(c3ccc(OC(C)C)cc3)C2)cc1` (some centres unmarked) [Example 3.9] yielded a half-maximal inhibitory concentration (IC50) of 205 nM. Compared with the last compound, the IC50 is about 2.8-fold higher.
In the case of `CCNC(=O)N[C@@H](C)c1ccc(OC2CCN(c3ccc(OC(C)C)cc3)C2)cc1` (some centres unmarked) [Example 3.10] it was 218 nM.
Compound `CC(C)Oc1ccc(N2CCC(Oc3ccc([C@H](C)NC(=O)N4CCOCC4)cc3)C2)cc1` (some centres unmarked) [Example 3.12] yielded an IC50 of 1280 nM.
On to `Cc1cc(OC2CC2)ccc1N1CCC(Oc2ccc([C@H](C)NC(=O)N3CCOCC3)cc2)C1` (some centres unmarked) [Example 3.13], for which 863 nM corresponded to half-maximal inhibition (IC50). The IC50 values of the last two compounds are within 1.5-fold of each other.
In turn, `COCCCOc1ccc(N2CC[C@@H](Oc3ccc([C@H](C)NC(C)=O)cc3)C2)cc1` [Example 4.1, N—((S)-1-(4-((R)-1-(4-(3-methoxypropoxy)phenyl)pyrrolidin-3-yloxy)phenyl)ethyl)-acetamide] registered an IC50 of 460 nM.
As for `CCOC(=O)C1(Oc2ccc(N3CCC(Oc4ccc([C@H](C)NC(C)=O)cc4)C3)cc2)CCC1` (some centres unmarked) [Example 4.2], the half-maximal inhibitory concentration (IC50) worked out at 309 nM.
On to `CCC(C)Oc1ccc(N2CCC(Oc3ccc([C@H](C)NC(C)=O)cc3)C2)cc1` (some centres unmarked) [Example 4.3], for which the midpoint of inhibition, the IC50, lay at 169 nM.
For `COCCOc1ccc(N2CCC(Oc3ccc([C@H](C)NC(C)=O)cc3)C2)cc1` (some centres unmarked) [Example 4.4], it took 560 nM to reach half-maximal inhibition (IC50).
As to `CC(=O)N[C@@H](C)c1ccc(OC2CCN(c3ccc(OCc4ccccc4)cc3)C2)cc1` (some centres unmarked) [Example 4.5], the IC50 is 660 nM.
For `CC(=O)N[C@@H](C)c1ccc(OC2CCN(c3ccc(OCC(F)F)cc3)C2)cc1` (some centres unmarked) [Example 4.6], the half-maximal inhibitory concentration (IC50) stood at 360 nM.
In the case of `CC(=O)N[C@@H](C)c1ccc(OC2CCN(c3ccc(OCC(F)(F)C(F)F)cc3)C2)cc1` (some centres unmarked) [Example 4.7] it was 630 nM; in that of `COC(=O)N[C@@H](C)c1ccc(O[C@@H]2CCN(c3ccc(OCC4CC4)cc3)C2)cc1` [Example 5.1, Methyl-(S)-1-(4-((R)-1-(4-(cyclopropylmethoxy)phenyl)pyrrolidin-3-yloxy)phenyl)-ethylcarbamate], 49 nM; in that of `C[C@H](NC(=O)C(F)(F)F)c1ccc(O[C@@H]2CCN(c3ccc(OCC4CC4)cc3)C2)cc1` [Example 6, N—((S)-1-(4-((R)-1-(4-(Cyclopropylmethoxy)phenyl)pyrrolidin-3-yloxy)phenyl)-ethyl)-2,2,2-trifluoroacetamide], 39 nM.
In turn, `CC(=O)N[C@@H](C)c1ccc(OC2CCN(c3ccc(OCC4CC4)cc3)C2)cn1` (stereo partly drawn) [Example 7.1, N—((S)-1-(5-((R)-1-(4-(Cyclopropylmethoxy)phenyl)pyrrolidin-3-ylox)pyridin-2-yl)ethyl)acetamide] returned a half-maximal inhibitory concentration (IC50) of 1780 nM.
Consider `CC(=O)NC(C)c1ccc(OC2CCN(c3ccc(OCC4CC4)cc3)C2)cc1F` (centres unmarked) [Example 7.2], for which the half-inhibitory concentration (IC50) came to 762 nM.
`CC(=O)NC(C)c1ccc(OC2CCN(c3ccc(OCC4CC4)cc3)C2)c(F)c1` (centres unmarked) [Example 7.3] came in with an IC50 of 199 nM. This IC50 lies about 3.8-fold lower than the previous one.
With `C[C@H](NC(=O)C1CC1)c1ccc(O[C@@H]2CCN(c3ccc(OCC4CC4)cc3)C2)cc1` [Example 8.1, N—((S)-1-(4-((R)-1-(4-(Cyclopropylmethoxy)phenyl)pyrrolidin-3-yloxy)phenyl)-ethyl)-cyclopropanecarboxamide], half-maximal inhibition (IC50) was put at 373 nM.
